The record followed here is ChEMBL document CHEMBL5291721, “A preclinical secondary pharmacology resource illuminates target-adverse drug reaction associations of marketed drugs” (Nat Commun, 2023).

Each structure is given as a SMILES string.

Assay [1] addresses T1, Cholecystokinin receptor type A (Homo sapiens, UniProt P32238).
T1 sequence (P32238 whole entry): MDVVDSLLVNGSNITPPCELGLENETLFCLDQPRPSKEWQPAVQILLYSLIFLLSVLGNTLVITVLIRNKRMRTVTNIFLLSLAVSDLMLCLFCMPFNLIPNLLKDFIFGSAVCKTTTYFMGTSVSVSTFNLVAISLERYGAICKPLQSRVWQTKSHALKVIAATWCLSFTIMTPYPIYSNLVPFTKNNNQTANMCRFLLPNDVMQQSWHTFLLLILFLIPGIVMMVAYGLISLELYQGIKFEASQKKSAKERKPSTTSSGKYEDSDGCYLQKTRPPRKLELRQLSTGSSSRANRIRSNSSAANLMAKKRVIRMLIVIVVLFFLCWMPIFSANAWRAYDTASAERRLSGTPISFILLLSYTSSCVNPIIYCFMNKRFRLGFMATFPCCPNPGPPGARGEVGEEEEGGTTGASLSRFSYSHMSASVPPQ

Assay [2] has as its target T2, 5-hydroxytryptamine receptor 3A (Homo sapiens, UniProt P46098).
T2 sequence (P46098 whole entry): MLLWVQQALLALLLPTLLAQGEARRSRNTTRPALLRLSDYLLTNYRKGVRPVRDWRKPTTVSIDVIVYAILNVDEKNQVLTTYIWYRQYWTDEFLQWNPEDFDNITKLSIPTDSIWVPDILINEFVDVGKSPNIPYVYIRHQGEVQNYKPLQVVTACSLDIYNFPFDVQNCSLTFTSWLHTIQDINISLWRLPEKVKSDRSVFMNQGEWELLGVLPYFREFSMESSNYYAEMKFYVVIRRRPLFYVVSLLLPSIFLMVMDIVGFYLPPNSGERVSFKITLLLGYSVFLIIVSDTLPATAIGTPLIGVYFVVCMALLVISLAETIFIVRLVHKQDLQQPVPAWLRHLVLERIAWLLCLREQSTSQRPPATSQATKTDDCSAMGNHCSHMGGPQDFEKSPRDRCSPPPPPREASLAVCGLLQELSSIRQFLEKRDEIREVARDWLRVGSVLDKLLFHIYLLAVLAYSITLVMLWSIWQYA
The class given is functional.

Assay [3] addresses Sodium-dependent dopamine transporter (Homo sapiens, UniProt Q01959).
A further assay deals with D(3) dopamine receptor (Homo sapiens, UniProt P35462).
In assay [4] the target is Voltage-gated inwardly rectifying potassium channel KCNH2 (Homo sapiens, UniProt Q12809). The assay is classed as functional.
The target in assay [5] is T3, Alpha-1A adrenergic receptor (Homo sapiens, UniProt P35348).
T3 sequence (P35348 whole entry): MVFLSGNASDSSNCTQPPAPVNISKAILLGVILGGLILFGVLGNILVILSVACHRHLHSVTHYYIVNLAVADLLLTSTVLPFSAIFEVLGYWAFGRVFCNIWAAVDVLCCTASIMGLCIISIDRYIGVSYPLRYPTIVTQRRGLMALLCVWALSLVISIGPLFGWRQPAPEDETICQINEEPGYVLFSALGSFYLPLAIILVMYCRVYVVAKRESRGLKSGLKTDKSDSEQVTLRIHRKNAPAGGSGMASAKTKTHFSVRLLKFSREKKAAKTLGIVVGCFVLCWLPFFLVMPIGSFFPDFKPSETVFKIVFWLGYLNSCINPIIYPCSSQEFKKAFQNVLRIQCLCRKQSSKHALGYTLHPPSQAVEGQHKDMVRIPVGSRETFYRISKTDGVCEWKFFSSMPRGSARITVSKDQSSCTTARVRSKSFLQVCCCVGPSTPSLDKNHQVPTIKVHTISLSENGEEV
The assay is classed as functional, cell-based.

Another assay concerns the target D(1A) dopamine receptor (Homo sapiens, UniProt P21728). The assay is classed as functional, cell-based.
The target in a further assay is T4, Progesterone receptor (Homo sapiens, UniProt P06401).
T4 sequence (P06401 whole entry): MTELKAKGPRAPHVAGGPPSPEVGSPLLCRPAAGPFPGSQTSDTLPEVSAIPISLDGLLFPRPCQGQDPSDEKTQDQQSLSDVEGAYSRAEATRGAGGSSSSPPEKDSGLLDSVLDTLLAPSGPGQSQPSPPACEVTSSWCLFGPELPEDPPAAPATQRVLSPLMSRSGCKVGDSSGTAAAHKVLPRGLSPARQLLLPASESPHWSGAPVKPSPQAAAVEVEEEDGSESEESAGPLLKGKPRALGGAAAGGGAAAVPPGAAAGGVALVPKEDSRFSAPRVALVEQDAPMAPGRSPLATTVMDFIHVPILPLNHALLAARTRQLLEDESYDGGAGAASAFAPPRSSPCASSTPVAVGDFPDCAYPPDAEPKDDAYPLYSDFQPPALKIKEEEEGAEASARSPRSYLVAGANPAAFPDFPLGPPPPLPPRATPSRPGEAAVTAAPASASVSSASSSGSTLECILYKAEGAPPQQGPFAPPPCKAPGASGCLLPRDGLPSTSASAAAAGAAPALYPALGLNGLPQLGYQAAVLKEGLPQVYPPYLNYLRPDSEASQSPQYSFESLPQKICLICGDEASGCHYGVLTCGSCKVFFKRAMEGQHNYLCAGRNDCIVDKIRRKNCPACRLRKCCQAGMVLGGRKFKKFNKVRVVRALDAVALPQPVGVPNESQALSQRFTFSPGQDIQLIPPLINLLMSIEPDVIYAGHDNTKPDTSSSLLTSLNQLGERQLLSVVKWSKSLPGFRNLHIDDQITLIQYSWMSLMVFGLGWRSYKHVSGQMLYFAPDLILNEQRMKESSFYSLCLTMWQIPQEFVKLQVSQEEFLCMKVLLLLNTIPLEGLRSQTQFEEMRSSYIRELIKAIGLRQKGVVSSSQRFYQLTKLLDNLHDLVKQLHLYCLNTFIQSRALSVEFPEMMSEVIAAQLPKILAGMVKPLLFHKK
The assay is classed as functional.

Assay [6] addresses Gamma-aminobutyric acid receptor subunit alpha-1 (Rattus norvegicus, UniProt P62813).
Also: assay procedure not described here.

Chain of Gamma-aminobutyric acid receptor subunit alpha-1 (P62813 whole entry): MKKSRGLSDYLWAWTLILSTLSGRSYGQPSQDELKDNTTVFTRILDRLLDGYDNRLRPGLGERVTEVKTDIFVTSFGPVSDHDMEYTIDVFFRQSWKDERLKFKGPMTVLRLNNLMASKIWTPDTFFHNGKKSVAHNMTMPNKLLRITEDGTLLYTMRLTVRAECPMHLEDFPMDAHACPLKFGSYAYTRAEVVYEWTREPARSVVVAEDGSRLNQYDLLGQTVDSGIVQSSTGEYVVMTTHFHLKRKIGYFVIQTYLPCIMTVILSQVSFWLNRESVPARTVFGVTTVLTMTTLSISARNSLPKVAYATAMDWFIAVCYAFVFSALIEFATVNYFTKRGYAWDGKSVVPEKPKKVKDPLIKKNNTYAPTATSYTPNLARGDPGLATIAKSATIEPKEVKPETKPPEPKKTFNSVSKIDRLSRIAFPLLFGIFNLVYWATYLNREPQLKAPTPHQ
Chain of Voltage-gated inwardly rectifying potassium channel KCNH2 (Q12809 whole entry): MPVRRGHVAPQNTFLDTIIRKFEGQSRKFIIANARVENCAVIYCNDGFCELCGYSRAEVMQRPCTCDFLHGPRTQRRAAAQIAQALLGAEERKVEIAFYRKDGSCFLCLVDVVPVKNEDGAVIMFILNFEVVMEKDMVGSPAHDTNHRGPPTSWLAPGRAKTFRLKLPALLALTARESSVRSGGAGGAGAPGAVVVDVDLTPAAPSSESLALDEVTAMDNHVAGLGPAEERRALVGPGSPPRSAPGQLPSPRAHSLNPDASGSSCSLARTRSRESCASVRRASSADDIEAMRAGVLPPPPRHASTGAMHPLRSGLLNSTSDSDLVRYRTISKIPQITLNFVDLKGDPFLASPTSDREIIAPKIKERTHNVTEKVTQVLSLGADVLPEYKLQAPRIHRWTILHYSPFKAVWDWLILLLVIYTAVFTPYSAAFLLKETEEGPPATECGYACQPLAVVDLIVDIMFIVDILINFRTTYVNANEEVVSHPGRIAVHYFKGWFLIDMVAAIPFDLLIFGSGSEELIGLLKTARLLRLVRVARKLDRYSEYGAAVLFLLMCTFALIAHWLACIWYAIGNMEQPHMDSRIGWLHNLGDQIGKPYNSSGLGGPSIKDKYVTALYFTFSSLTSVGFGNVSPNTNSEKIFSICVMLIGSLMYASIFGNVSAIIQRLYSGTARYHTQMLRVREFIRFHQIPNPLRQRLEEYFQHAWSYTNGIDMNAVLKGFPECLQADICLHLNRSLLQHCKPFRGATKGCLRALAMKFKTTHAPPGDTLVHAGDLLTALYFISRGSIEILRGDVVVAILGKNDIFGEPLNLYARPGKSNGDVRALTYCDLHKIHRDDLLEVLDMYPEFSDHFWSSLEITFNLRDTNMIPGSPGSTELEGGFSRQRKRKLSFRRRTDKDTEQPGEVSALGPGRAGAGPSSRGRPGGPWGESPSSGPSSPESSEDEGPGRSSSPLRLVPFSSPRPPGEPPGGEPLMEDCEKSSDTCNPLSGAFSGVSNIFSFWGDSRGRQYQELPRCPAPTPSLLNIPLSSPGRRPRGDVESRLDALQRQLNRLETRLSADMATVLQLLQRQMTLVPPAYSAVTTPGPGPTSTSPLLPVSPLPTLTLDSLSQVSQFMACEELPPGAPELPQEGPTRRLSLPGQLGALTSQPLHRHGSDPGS
Chain of D(1A) dopamine receptor (P21728 whole entry): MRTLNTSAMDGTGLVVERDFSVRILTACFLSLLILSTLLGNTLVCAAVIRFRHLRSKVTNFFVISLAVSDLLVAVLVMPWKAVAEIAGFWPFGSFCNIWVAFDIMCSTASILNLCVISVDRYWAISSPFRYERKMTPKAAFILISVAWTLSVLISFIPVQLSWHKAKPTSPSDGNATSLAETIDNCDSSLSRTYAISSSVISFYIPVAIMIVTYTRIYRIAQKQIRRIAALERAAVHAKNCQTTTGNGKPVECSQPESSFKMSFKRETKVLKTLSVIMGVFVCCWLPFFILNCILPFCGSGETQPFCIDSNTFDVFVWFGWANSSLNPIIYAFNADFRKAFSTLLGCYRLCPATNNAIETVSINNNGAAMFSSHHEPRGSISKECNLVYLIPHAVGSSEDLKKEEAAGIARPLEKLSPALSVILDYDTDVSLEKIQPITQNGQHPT
Chain of Sodium-dependent dopamine transporter (Q01959 whole entry): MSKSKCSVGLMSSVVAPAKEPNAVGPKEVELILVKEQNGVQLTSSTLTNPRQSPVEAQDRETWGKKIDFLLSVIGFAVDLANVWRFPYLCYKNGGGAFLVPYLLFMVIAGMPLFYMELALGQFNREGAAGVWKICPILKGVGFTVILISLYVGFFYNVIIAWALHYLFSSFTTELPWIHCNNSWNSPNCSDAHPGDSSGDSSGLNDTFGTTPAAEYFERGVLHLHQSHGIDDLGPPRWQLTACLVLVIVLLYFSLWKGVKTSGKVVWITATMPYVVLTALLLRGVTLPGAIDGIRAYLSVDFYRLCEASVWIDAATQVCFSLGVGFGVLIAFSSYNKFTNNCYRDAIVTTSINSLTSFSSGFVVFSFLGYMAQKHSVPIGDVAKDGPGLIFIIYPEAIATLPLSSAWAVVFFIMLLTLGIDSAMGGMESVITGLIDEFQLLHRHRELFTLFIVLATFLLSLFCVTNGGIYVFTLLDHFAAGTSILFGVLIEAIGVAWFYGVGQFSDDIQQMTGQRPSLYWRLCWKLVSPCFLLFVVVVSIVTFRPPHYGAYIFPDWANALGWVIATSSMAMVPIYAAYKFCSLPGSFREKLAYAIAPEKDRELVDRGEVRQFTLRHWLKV
Chain of D(3) dopamine receptor (P35462 whole entry): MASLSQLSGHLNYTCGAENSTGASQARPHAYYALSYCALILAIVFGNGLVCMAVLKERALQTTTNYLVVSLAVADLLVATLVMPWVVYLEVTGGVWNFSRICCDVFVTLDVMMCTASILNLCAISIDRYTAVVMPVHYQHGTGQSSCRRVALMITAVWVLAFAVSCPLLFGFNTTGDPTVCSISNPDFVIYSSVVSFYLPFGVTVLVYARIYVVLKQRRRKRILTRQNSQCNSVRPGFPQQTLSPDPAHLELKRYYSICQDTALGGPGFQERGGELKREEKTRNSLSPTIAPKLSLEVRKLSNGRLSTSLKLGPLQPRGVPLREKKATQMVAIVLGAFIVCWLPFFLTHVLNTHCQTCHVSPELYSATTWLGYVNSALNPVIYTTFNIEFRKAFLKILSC

On to `Cn1c(=O)cc(N2CCC[C@@H](N)C2)n(Cc2ccccc2C#N)c1=O` [ALOGLIPTIN], for which the AC50 in [1] is above 30 µM; in [2], above 10 µM; in assay [3], above 10 µM; at D(3) dopamine receptor it was above 10 µM.
As for `Nc1c2ccccc2nc2ccccc12` [AMINACRINE], the AC50 in assay [4] is 12 µM.
On to `Oc1ccc2c(c1)[C@@]13CCCC[C@@]1(O)[C@@H](C2)N(CC1CCC1)CC3` [BUTORPHANOL], for which the AC50 in assay [5] was above 30 µM; in [1], above 30 µM; on D(1A) dopamine receptor it was above 30 µM; in assay [2], above 30 µM; in assay [4] it was 12 µM; on Progesterone receptor, above 30 µM. Besides, the AC50 (in assay [3]; at D(3) dopamine receptor) was above 30 µM throughout.
As to `CC(=O)[C@@]1(O)CC[C@H]2[C@@H]3C=C(Cl)C4=CC(=O)[C@@H]5C[C@@H]5[C@]4(C)[C@H]3CC[C@@]21C` [CYPROTERONE], the AC50 was above 10 µM in [1]; 2.07 µM at D(1A) dopamine receptor; above 10 µM in assay [6]; above 30 µM in assay [2]; above 30 µM in assay [4]; 0.003 µM at Progesterone receptor. The results for the AC50 (in assay [3]; on D(3) dopamine receptor) were above 10 µM and above 30 µM, respectively.
For the molecule `COc1cc2ncnc(Nc3ccc(F)c(Cl)c3)c2cc1NC(=O)/C=C/CN1CCCCC1` [DACOMITINIB ANHYDROUS], the AC50 was above 30 µM in [5], above 30 µM on Progesterone receptor and 15 µM in assay [3].
As to `CC(=O)OCC(=O)[C@@]1(O)[C@H](C)C[C@H]2[C@@H]3CCC4=CC(=O)C=C[C@]4(C)[C@@]3(F)[C@@H](O)C[C@@]21C` [DEXAMETHASONE ACETATE], the AC50 was above 30 µM in [5]; above 30 µM in [1]; above 10 µM at D(1A) dopamine receptor; above 10 µM in assay [6]; above 30 µM in assay [2]; above 30 µM in [4]. Further, the AC50 (in assay [3]; at D(3) dopamine receptor) was above 30 µM each time.
With `CCN(CC)CCN1C(=O)CN=C(c2ccccc2F)c2cc(Cl)ccc21` [FLURAZEPAM], the AC50 in [5] is above 30 µM; in [1], above 30 µM; on D(1A) dopamine receptor, above 30 µM; in assay [6], above 10 µM; in assay [2], 20 µM; in assay [4], 0.896 µM. Moreover, the figures for the AC50 (in assay [3]; at D(3) dopamine receptor) were above 30 µM and 8.4 µM, respectively.
With `CC(=O)[C@]1(O)Cc2c(O)c3c(c(O)c2[C@@H](O[C@H]2C[C@H](N)[C@H](O)[C@H](C)O2)C1)C(=O)c1ccccc1C3=O` [IDARUBICIN], the AC50 in [1] is above 10 µM; at D(1A) dopamine receptor, above 30 µM; in assay [6], above 30 µM; in [2], 13 µM; in [4], 20.7 µM; on Progesterone receptor, 5.8 µM. Further, the values for the AC50 (in assay [3]; at D(3) dopamine receptor) were 15 µM and 17 µM, respectively.
`Nc1cc(-c2ccncc2)c[nH]c1=O` [INAMRINONE]: the AC50 in assay [5] was above 30 µM; in [1] it was above 30 µM; on D(1A) dopamine receptor, above 10 µM; in assay [6] it was above 10 µM; in assay [2], above 30 µM; in assay [4], above 30 µM. Further, the AC50 (in assay [3]; at D(3) dopamine receptor) was above 30 µM in each case.
As to `O=C(O)CCCCC1CCSS1` (stereo not drawn) [LIPOIC ACID, ALPHA], the AC50 in [4] was above 30 µM.
`COc1cc2c(cc1OC)C(CCc1ccc(Cl)cc1)N(C)CC2` (centres undefined) [METHOPHOLINE]: the concentration at half-maximal activity (AC50) in assay [1] is above 30 µM; on D(1A) dopamine receptor, above 10 µM; in assay [6] it was above 10 µM; in assay [2], above 30 µM; at Progesterone receptor, above 30 µM; in [3], 28.7 µM. In addition, the AC50 at D(3) dopamine receptor is above 30 µM.
With `Cc1ncc2n1-c1ccc(Cl)cc1C(c1ccccc1F)=NC2` [MIDAZOLAM], the AC50 in assay [5] is above 30 µM; in assay [1] it was above 30 µM; on D(1A) dopamine receptor it was above 30 µM; in assay [6], above 10 µM; in assay [2] it was above 30 µM; in assay [4], above 30 µM. Also, the AC50 in assay [3] was above 30 µM; at D(3) dopamine receptor it was 10 µM.
As for `C/C(=C\C(=O)OCCCCCCCCC(=O)O)C[C@@H]1OC[C@H](C[C@@H]2O[C@H]2[C@@H](C)[C@H](C)O)[C@@H](O)[C@H]1O` [MUPIROCIN], the AC50 is above 10 µM in [1]; above 10 µM on D(1A) dopamine receptor; above 10 µM in assay [6]; above 30 µM in assay [2]; above 30 µM in assay [4]; above 10 µM at Progesterone receptor. The AC50 (in assay [3]; at D(3) dopamine receptor) was above 30 µM each time.
With `O=C1CN=C(c2ccccc2)c2cc([N+](=O)[O-])ccc2N1` [NITRAZEPAM], the AC50 was above 10 µM in [1]; above 30 µM on D(1A) dopamine receptor; above 10 µM in [6]; above 30 µM in assay [2]; above 30 µM in assay [4]; above 10 µM at Progesterone receptor. In addition, the AC50 in assay [3] is above 10 µM; at D(3) dopamine receptor, above 30 µM.
Regarding `C#CCOc1ccc(N)cc1C(=O)NCCCC` [PARSALMIDE], the AC50 (in assay [1]; on D(1A) dopamine receptor; in [6]; in [2]; in [4]; at Progesterone receptor) was above 30 µM throughout. Further, the concentration at half-maximal activity (AC50) (in assay [3]; at D(3) dopamine receptor) was above 30 µM throughout.
Regarding `CN(C(=O)c1c(O)c2ccccc2n(C)c1=O)c1ccccc1` [ROQUINIMEX], the AC50 (in [5]; on Progesterone receptor; in assay [3]) was above 30 µM throughout.
In the case of `OCc1cc(C(O)CNCCCCCCOCCCCc2ccccc2)ccc1O` (centres undefined) [SALMETEROL], the AC50 in [1] is above 30 µM; at D(1A) dopamine receptor, above 30 µM; in assay [6] it was above 10 µM; in assay [2], above 30 µM; in [4], 8.1 µM; on Progesterone receptor, above 30 µM. In addition, the AC50 in assay [3] was 0.845 µM; at D(3) dopamine receptor it was 8.9 µM.
As to `Cn1cnc2c(F)c(Nc3ccc(Br)cc3Cl)c(C(=O)NOCCO)cc21` [SELUMETINIB], the AC50 in [4] and in [3] was above 30 µM each time.
